In test [1] the target is T1, Prolyl endopeptidase (PEP) (Elizabethkingia meningoseptica, UniProt P27028).
T1 construct: gene f1pep1
Nature of the test: chromogenic PEP assay, inhibition rate at […]. The class given is biochemical.

A further test addresses T2, UGT85A1 (Arabidopsis thaliana, UniProt Q9SK82).
T2 construct: N-terminal His6-tagged
T2 sequence (Q9SK82 1-489): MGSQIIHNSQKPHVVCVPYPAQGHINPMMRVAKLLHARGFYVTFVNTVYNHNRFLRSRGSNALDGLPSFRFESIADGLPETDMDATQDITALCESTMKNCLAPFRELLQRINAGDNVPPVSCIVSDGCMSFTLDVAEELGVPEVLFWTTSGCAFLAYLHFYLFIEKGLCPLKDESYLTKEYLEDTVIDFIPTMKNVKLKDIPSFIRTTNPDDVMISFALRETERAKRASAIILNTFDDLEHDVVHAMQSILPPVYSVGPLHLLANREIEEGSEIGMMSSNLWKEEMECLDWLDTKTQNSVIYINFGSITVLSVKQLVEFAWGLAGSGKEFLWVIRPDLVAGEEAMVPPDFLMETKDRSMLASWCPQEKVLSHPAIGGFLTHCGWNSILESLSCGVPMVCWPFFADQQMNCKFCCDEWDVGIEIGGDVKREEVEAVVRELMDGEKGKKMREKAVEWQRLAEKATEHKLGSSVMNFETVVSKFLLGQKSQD
Nature of the test: in vitro glucosylation by purified enzyme, HPLC ([…] conversion). The class given is biochemical.

A value given as a limit tells only on which side of the number the result lay.

As usually defined, the inhibition is the relative decrease from the control value, in per cent.

T1 sequence (P27028 21-705): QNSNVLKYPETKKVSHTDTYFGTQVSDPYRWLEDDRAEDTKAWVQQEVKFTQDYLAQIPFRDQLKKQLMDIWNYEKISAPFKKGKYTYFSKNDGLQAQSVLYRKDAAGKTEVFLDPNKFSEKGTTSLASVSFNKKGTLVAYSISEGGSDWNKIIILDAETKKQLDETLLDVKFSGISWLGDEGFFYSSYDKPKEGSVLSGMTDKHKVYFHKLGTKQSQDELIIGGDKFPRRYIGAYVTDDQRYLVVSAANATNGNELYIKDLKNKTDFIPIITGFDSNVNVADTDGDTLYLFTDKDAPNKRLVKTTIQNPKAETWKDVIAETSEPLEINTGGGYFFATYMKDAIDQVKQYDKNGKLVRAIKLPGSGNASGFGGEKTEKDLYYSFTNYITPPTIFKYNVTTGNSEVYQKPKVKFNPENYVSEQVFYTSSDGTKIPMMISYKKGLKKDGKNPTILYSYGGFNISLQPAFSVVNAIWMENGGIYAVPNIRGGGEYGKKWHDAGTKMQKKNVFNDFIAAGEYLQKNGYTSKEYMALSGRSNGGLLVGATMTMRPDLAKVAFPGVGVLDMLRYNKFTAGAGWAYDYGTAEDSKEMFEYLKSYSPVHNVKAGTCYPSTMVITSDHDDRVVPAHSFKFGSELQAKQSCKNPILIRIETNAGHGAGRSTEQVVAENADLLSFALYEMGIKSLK

In the case of `OC[C@H]1O[C@@H](OCc2cccc(O)c2)[C@H](O)[C@@H](O)[C@@H]1O` [12b], the inhibition at 500 µM in test [1] was over 50%.

Compound `CC(O[C@@H]1O[C@H](CO)[C@@H](O)[C@H](O)[C@H]1O)c1ccc(O)cc1` (stereo partly shown) [13b] displayed an inhibition at 500 µM in test [1] of over 50%.

With `CC(O[C@@H]1O[C@H](CO)[C@@H](O)[C@H](O)[C@H]1O)c1cccc(O)c1` (stereo partly shown) [14b], the inhibition at 500 µM in test [1] is over 50%.

As to `OCc1ccc(O)cc1` [compound 1, p-hydroxybenzyl alcohol], at UGT85A1, the “in vitro glucosylation by purified enzyme, HPLC (98.9% conversion)” value was “UGT85A1 showed higher selectivity than RrUGT17, producing only the alcoholic glucoside 1b”.

Values taken from PMC9549646, “Diversification of phenolic glucosides by two UDP-glucosyltransferases featuring complementary regioselectivity” (Microbial Cell Factories, 2022).
